Consider four compounds from patent US20250101102A1, “BISPECIFIC ANTIBODY AGAINST CD3 AND CD20 IN COMBINATION THERAPY FOR TREATING DIFFUSE LARGE B-CELL LYMPHOMA” (GENMAB A/S, priority 2022, published 2025).

For one data set, the system named is T cells. Put plainly: T cell viability after pretreatment with CHP components. Format: cell-based.
Data set [1] deals with CD20-expressing Daudi cells. The note with it: 333 ng/ml DuoBody-CD3xCD20, 4 donors. Here is the method:
Briefly, T cells were pre-incubated with cyclophosphamide, doxorubicin, or prednisone for 16 hours and subsequently used in a cytotoxicity assay with epcoritamab and CD20-expressing Daudi cells as target cells (E: T ratio 2:1), in which cyclophosphamide, doxorubicin, or prednisone was added in the same concentration as during pre-incubation, respectively. Data are presented as percent viable target cells (CD4-CD8-CD22+), normalized to medium control (no Ab, no CHP component).

In data set [2] the test system is CD20-expressing Raji-luc tumor cells. Particulars: NOD-SCID mice injected with Raji-luc tumor cells and PBMCs; even in the presence of an excess of IgG1-RTX-FEAR; cited from earlier work.
The test system of data set [3] is primary DLBCL and follicular lymphoma patient biopsies. The note with it: cited from earlier work.
Data set [4] relates to relapsed or refractory (R/R) B-NHL; highly refractory large B-cell lymphoma. The note with it: cited from earlier work.
Setting [5] is: T cells pre-incubated for 16 hours.
Where [6] appears, read: highly refractory large B-cell lymphoma, n=157.

Read-outs that look alike come from different tables or passages of the source.

Turning to `COc1cccc2c1C(=O)c1c(O)c3c(c(O)c1C2=O)C[C@@](O)(C(=O)CO)C[C@@H]3O[C@H]1C[C@H](N)[C@H](O)[C@H](C)O1` [doxorubicin], the “T cell viability after pretreatment” value with T cells (setting [5]) is “reduction in T cell viability”.

Turning to `C[C@]12C=CC(=O)C=C1CC[C@@H]1[C@@H]2C(=O)C[C@@]2(C)[C@H]1CC[C@]2(O)C(=O)CO` [prednisone, 17,21-dihydroxypregna-1,4-diene-3,11,20-trione], the “T cell viability after pretreatment” value with T cells (setting [5]) is “did not impact T cell viability”.

Take `O=P1(N(CCCl)CCCl)NCCCO1` (centres unmarked) [cyclophosphamide, 2H-1,3,2-Oxazaphosphorin-2-amine, N,N-bis(2-chloroethyl)tetrahydro-, 2-oxide]: the “T cell viability after pretreatment” value in the data set with T cells is “did not impact T cell viability”.

Take “epcoritamab: IgG1 bispecific CD3×CD20 antibody; heavy and light chain pairs SEQ ID NOs: 24/25 (CD3ε arm) and 26/27 (CD20 arm); CAS 2134641-34-0”: the “viable B cells left after incubation” value in data set [1] (T cells pretreated with cyclophosphamide, FIG. 1A right panel) is “very low percentages of viable B cells”. Besides, the “viable B cells left after incubation” value in data set [1] (T cells pretreated with prednisone, FIG. 1C right panel) is “very low percentages of viable B cells”. Also, the “tumor growth in the xenograft model” value in data set [2] is reported as “effectively reduce tumor growth”. In data set [3], the T-cell-mediated cytotoxicity entry was “induced T-cell-mediated cytotoxicity”. In addition, in data set [4] (setting [6]), the “complete response (CR) rate” value is reported as 39%, the “median duration of response (DOR)” value was 12 months and the “overall response rate (ORR)” value is given as 63%. Further, in data set [4] (in vivo), the safety profile result is “manageable safety profile”.
